This assay addresses PAFR (Homo sapiens, UniProt P25105). The assay can be described thus: PAF Binding Assay (PAFR binding).

Chain of PAFR (P25105 whole entry): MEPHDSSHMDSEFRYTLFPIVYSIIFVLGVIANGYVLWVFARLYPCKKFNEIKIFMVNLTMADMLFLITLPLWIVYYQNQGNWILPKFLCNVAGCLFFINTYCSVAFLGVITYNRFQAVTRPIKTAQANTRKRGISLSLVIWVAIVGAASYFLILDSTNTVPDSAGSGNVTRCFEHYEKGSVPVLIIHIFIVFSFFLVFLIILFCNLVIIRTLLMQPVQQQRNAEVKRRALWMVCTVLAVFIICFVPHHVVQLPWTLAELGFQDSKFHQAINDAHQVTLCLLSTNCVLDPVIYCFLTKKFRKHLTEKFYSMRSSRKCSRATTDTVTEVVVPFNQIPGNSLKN

In general, IC50 refers to the concentration that inhibits the measured activity by half. The low end stands for inhibition by little substance, the high end for a need for much substance. The molecule `Cc1nncn1[C@H]1C[C@@H](NS(=O)(=O)c2ccc(OCCCCF)c(F)c2)CC(F)(F)C1` [Compound 2Hi, N-[(1R,5S)-3,3-difluoro-5-(3-methyl-4H-1,2,4-triazol-4-yl)cyclohexyl]-3-fluoro-4-(4-fluorobutoxy)benzenesulfonamide] returned an IC50 of 6.8 nM.

As to `O=S(=O)(N[C@H]1CCC[C@@H](n2cnnc2)C1)c1cc(-c2ccnc3ccnn23)cc(C(F)(F)F)c1` [Compound 9c, 3-pyrazolo[1,5-a]pyrimidin-7-yl-N-[(1S,3R)-3-(4H-1,2,4-triazol-4-yl)cyclohexyl]-5-(trifluoromethyl)benzenesulfonamide], the half-inhibitory concentration (IC50) was determined as 5.9 nM.

`Cc1nncn1[C@@H]1CCC[C@H](NS(=O)(=O)c2ccc(-c3ccc(OC(F)(F)F)cc3)c(F)c2)C1` [Compound 2Fa, 2-fluoro-N-[(1S,3R)-3-(3-methyl-4H-1,2,4-triazol-4-yl)cyclohexyl]-4′-(trifluoromethoxy)biphenyl-4-sulfonamide] displayed an IC50 of 0.2 nM. Against the preceding molecule, the IC50 is about 30-fold lower.

With `CCc1cc(-c2ccnnc2)cc(S(=O)(=O)N[C@H]2CCC[C@@H](n3cnnc3)C2)c1` [Compound 3Baz, 3-ethyl-5-pyridazin-4-yl-N-[(1S,3R)-3-(4H-1,2,4-triazol-4-yl)cyclohexyl]benzenesulfonamide], the half-maximal inhibitory concentration (IC50) came to 208 nM. Compared with the last molecule, the IC50 is about 1000-fold higher.

Molecule `CC(C)Oc1ccc(-c2ccc(S(=O)(=O)N[C@H]3CCC[C@@H](n4cnnc4)C3)cc2F)cn1` [Compound 2Ee, 3-fluoro-4-(6-isopropoxypyridin-3-yl)-N-[(1S,3R)-3-(4H-1,2,4-triazol-4-yl)cyclohexyl]benzenesulfonamide] had a concentration for half-maximal inhibition (IC50) of 5.1 nM.

Turning to `CCc1cc(-c2ccc(OCC(F)(F)F)nc2)ccc1S(=O)(=O)N[C@@H]1C[C@H](n2cnnc2C)CC(F)(F)C1` [Compound 2Cbe, N-[(1R,5S)-3,3-difluoro-5-(3-methyl-4H-1,2,4-triazol-4-yl)cyclohexyl]-2-ethyl-4-[6-(2,2,2-trifluoroethoxy)pyridin-3-yl]benzenesulfonamide], the IC50 was 0.2 nM.

The molecule “3-ethyl-5-imidazo[1,2-a]pyridin-8-yl-N-[(1S,3R)-3-(4H-1,2,4-triazol-4-yl)cyclohexyl]-5-(trifluoromethyl)benzenesulfonamide [Compound 3Bau]” displayed a half-inhibitory concentration (IC50) of 0.8 nM.

`O=S(=O)(N[C@H]1CCC[C@@H](n2cnnc2)C1)c1cc(-c2noc(C3CC3)n2)cc(C(F)(F)F)c1` [Compound 3Ah, 3-(5-cyclopropyl-1,2,4-oxadiazol-3-yl)-N-[(1S,3R)-3-(4H-1,2,4-triazol-4-yl)cyclohexyl]-5-(trifluoromethyl)benzenesulfonamide] came in with an IC50 of 7.8 nM.

Turning to `CCc1cc(-c2ccc(OCC(F)(F)F)nc2)ccc1S(=O)(=O)N[C@H]1CCC[C@@H](n2cnnc2)C1` [Compound 2Aak, 2-ethyl-N-[(1S,3R)-3-(4H-1,2,4-triazol-4-yl)cyclohexyl]-4-[6-(2,2,2-trifluoroethoxy)pyridin-3-yl]benzenesulfonamide], the half-inhibitory concentration (IC50) turned out to be 0.7 nM. This IC50 is about 11-fold lower than that of the molecule before.

In turn, `COc1ncccc1-c1cc(C(F)(F)F)cc(S(=O)(=O)N[C@H]2CCC[C@@H](n3cnnc3)C2)c1` [Compound 3Ag, 3-(2-methoxypyridin-3-yl)-N-[(1S,3R)-3-(4H-1,2,4-triazol-4-yl)cyclohexyl]-5-(trifluoromethyl)benzenesulfonamide] showed a 50% inhibitory concentration (IC50) of 4.5 nM. Against the preceding molecule, the IC50 is about 6.4-fold higher.

`CCc1ccc(S(=O)(=O)N[C@H]2CCC[C@@H](n3cnnc3)C2)cc1-c1cccnc1OC` [Compound 2Mn, 4-ethyl-3-(2-methoxypyridin-3-yl)-N-[(1S,3R)-3-(4H-1,2,4-triazol-4-yl)cyclohexyl]benzenesulfonamide] yielded an IC50 of 63 nM.

`CCc1cc(-c2ccc(OC(F)(F)F)c(F)c2)ccc1S(=O)(=O)N[C@H]1CCC[C@@H](n2cnnc2)C1` [Compound 2Aac, 3-ethyl-3′-fluoro-N-[(1S,3R)-3-(4H-1,2,4-triazol-4-yl)cyclohexyl]-4′-(trifluoromethoxy)biphenyl-4-sulfonamide]: the half-inhibitory concentration (IC50) amounted to 13 nM.

The molecule `O=S(=O)(N[C@H]1CCC[C@@H](n2cnnc2)C1)c1cc(-c2ccc3ncccc3c2)cc(C(F)(F)F)c1` [Compound 3Ap, 3-quinolin-6-yl-N-[(1S,3R)-3-(4H-1,2,4-triazol-4-yl)cyclohexyl]-5-(trifluoromethyl)benzenesulfonamide] came in with a half-maximal inhibitory concentration (IC50) of 3.3 nM.

As for `COc1ccc(S(=O)(=O)N[C@H]2CCC[C@@H](n3cnnc3)C2)c(OC)c1` [Compound 2My, 2,4-dimethoxy-N-[(1S,3R)-3-(4H-1,2,4-triazol-4-yl)cyclohexyl]benzenesulfonamide], the half-maximal inhibitory concentration (IC50) came to 210 nM.

`CCc1cc(-n2cc(C)cn2)ccc1S(=O)(=O)N[C@H]1CCC[C@@H](n2cnnc2)C1` [Compound 6b, 2-ethyl-4-(4-methyl-1H-pyrazol-1-yl)-N-[(1S,3R)-3-(4H-1,2,4-triazol-4-yl)cyclohexyl]benzenesulfonamide] showed an IC50 of 25 nM. This IC50 is about 8.4-fold lower than that of the molecule before.

On to `Nc1cnc(-c2cc(C(F)(F)F)cc(S(=O)(=O)N[C@H]3CCC[C@@H](n4cnnc4)C3)c2)cn1` [Compound 3Aw, 3-(5-aminopyrazin-2-yl)-N-[(1S,3R)-3-(4H-1,2,4-triazol-4-yl)cyclohexyl]-5-(trifluoromethyl)benzenesulfonamide], for which the half-inhibitory concentration (IC50) came out at 6.6 nM.

The molecule `O=S(=O)(N[C@H]1CCC[C@@H](n2cnnc2)C1)c1cc(-c2cccn3ccnc23)cc(C(F)(F)F)c1` [Compound 3Aau, 3-imidazo[1,2-a]pyridin-8-yl-N-[(1S,3R)-3-(4H-1,2,4-triazol-4-yl)cyclohexyl]-5-(trifluoromethyl)benzenesulfonamide] showed a 50% inhibitory concentration (IC50) of 1.4 nM.

On to `COc1ccc(S(=O)(=O)N[C@H]2CCC[C@@H](n3cnnc3)C2)cc1OC` [Compound 2Mx, 3,4-dimethoxy-N-[(1S,3R)-3-(4H-1,2,4-triazol-4-yl)cyclohexyl]benzenesulfonamide], for which the half-inhibitory concentration (IC50) was 600 nM. Against the preceding molecule, the IC50 is about 430-fold higher.

As to `CCc1cc(OCCC(F)(F)F)ccc1S(=O)(=O)N[C@H]1CCC[C@@H](n2cnnc2)C1` [Compound 2Abk, 2-ethyl-N-[(1S,3R)-3-(4H-1,2,4-triazol-4-yl)cyclohexyl]-4-(3,3,3-trifluoropropoxy)benzenesulfonamide], the IC50 came out at 22 nM.

`CCOC(=O)c1cn2cc(Cl)cc(-c3cc(C(F)(F)F)cc(S(=O)(=O)N[C@H]4CCC[C@@H](n5cnnc5)C4)c3)c2n1` [Compound 3Aaw, ethyl 6-chloro-8-[3-({[(1S,3R)-3-(4H-1,2,4-triazol-4-yl)cyclohexyl]amino}sulfonyl)-5-(trifluoromethyl)phenyl]imidazo[1,2-a]pyridine-2-carboxylate] displayed a concentration for half-maximal inhibition (IC50) of 0.5 nM. This IC50 is about 44-fold lower than that of the molecule before.

Consider `Cc1nncn1[C@H]1C[C@@H](NS(=O)(=O)c2cc(-c3ccn[nH]3)cc(C(F)(F)F)c2)CC(F)(F)C1` [Compound 9Ae], for which the half-inhibitory concentration (IC50) turned out to be 18 nM. Against the preceding molecule, the IC50 is about 36-fold higher.

In turn, `Cc1nncn1[C@@H]1CCC[C@H](NS(=O)(=O)c2ccc(-c3noc(C4CC4)n3)cc2)C1` [Compound 2Nl, 4-(5-cyclopropyl-1,2,4-oxadiazol-3-yl)-N-[(1S,3R)-3-(3-methyl-4H-1,2,4-triazol-4-yl)cyclohexyl]benzenesulfonamide] registered an IC50 of 9.6 nM.

Regarding `O=S(=O)(N[C@H]1CCC[C@@H](n2cnnc2)C1)c1cc(-c2cncc(F)c2)cc(C(F)(F)F)c1` [Compound 3Aac, 3-(5-fluoropyridin-3-yl)-N-[(1S,3R)-3-(4H-1,2,4-triazol-4-yl)cyclohexyl]-5-(trifluoromethyl)benzenesulfonamide], the IC50 was found to be 20 nM. This IC50 lies about 2.1-fold higher than the previous one.

Values taken from patent US9029377B2, “Platelet-activating factor receptor antagonists” (Merck Sharp & Dohme Corp., priority 2009, dated 2015).
